Where two headings read alike, the source gives them in different places. Square brackets hold non-standard residues; d marks the D form. Ends that are not written are not given here. Peptide text beside a SMILES is read from it. Aad = N[C@@H](CCCC(=O)O)C(=O)O; Sec = N[C@@H](C[SeH])C(=O)O; Orn = NCCC[C@H](N)C(=O)O
Key:
[1] = target: T1, human JMJD7 (Homo sapiens, UniProt P0C870); experiment: LC-MS assay of JMJD7-catalyzed hydroxylation/oxidation of DRG1 peptides; format: biochemical; conditions: 10 μM FAS, 100 μM LAA
T1 construct: human JMJD7 (residues 1–316) with an N‐terminal His6‐tag; His6 (N); made in house; host or cells: Escherichia coli Rosetta (DE3)
Procedure: Initial assays were carried out by incubation of purified recombinant (Markolovic et al., [2018]) human JMJD7 (2 μM) in the presence of a DRG1 derived peptide (10 μM), 2OG (10 μM), ferrous ammonium sulfate (FAS, 10 μM), and L‐ascorbate (LAA, 100 μM) in Tris buffer at pH 7.5 for 2 h at room temperature. Potential conversion to a hydroxylated product (+16 Da mass shift) was monitored by liquid‐chromatography‐mass‐spectrometry (LC–MS). […] The assay results also implied that DRG1‐Orn was hydroxylated, but to a lower extent (~21%) than DRG1‐Lys. […] The alcohol‐containing peptide hydroxynorleucine (DRG1‐HNle), was hydroxylated at relatively low levels (~24%), implying that H‐bonding interactions and positive charge of the N^ɛ‐amino group of lysine are important for efficient binding and catalysis, but that a neutral alcohol can still be accommodated at the active site (Figure 3f) (Markolovic et al., [2018]).
All reagents were procured from Sigma Aldrich. 2‐Oxoglutarate (2OG, 10 mM) and L‐ascorbic acid (LAA, 50 mM) solutions were prepared freshly by dissolving the solids in deionized water. Ferrous ammonium sulfate (FAS) solution was prepared freshly by dissolving FAS at 400 mM in 20 mM HCl with subsequent dilution to 1 mM using deionized water. JMJD7 assays using DRG1 (16–40) based peptides were performed with the following conditions: (i) 2 or 5 μM JMJD7, 10 μM DRG1 peptide, 100 μM LAA, 10 μM FAS, 10 μM 2OG in mM 50 Tris‐buffer (pH 7.5), (ii) 2 μM JMJD7, 10 μM DRG1 peptide, 100 μM LAA, 10 μM FAS, 20 μM 2OG in mM 50 Tris‐buffer (pH 7.5). Reactions were initiated by addition of enzyme to the cosubstrate/substrate solution in a final reaction volume of 50 μL with 2 h incubation at room temperature. A positive control reaction containing enzyme and a validated peptide substrate was included in all screening studies. After 2 h, reactions were stopped by addition of 5 μL of 10% (v/v) LC–MS grade formic acid (Fisher Scientific) and transferred to a 96 well plate (Agilent). Intact mass peptide analysis was performed by LC–MS using an Agilent 1290 infinity II LC system equipped with an Agilent 1290 multisampler and an Agilent 1290 high speed pump and connected to an Agilent 6550 accurate mass iFunnel quadrupole time of flight (Q‐TOF) mass spectrometer. The reaction mixture (4 μL) was injected and loaded onto a ZORBAX RRHD Eclipse Plus C18 column (Agilent). Solvent A consisted of LC–MS grade water containing 0.1% (v/v) formic acid and solvent B consisted of MeCN containing 0.1% (v/v) formic acid. Peptides were separated using a step wise gradient (0 min – 95% solvent A, 1.0 min – 80% solvent A, 3.0 min – 45% solvent A, 4.0 min – 45% solvent A, 5.0 min – 0% solvent A, 6.0 min – 0% solvent A, 7.0 min – 95% solvent A). This was followed by a 3 min elution with 95% solvent A to re‐equilibrate the column. Flow rates were 0.2 mL/min. The mass spectrometer was operated in the positive ion mode with a drying gas temperature (280°C), drying gas flow rate (13 L min^−1), nebulizer pressure (40 psig), sheath gas temperature (350°C), sheath gas flow rate (12 L min^−1), capillary voltage (4000 V), nozzle voltage (1000 V). Data were analyzed using Agilent MassHunter Qualitative Analysis (Version B.07.00) software.

[2] = target: T1, human JMJD7; experiment: MALDI-TOF MS JMJD7 inhibition assay; format: biochemical
Procedure: Due to signal overlaps between some DRG1 peptides and the reference DRG1‐Lys substrate, we synthesized a shorter reference substrate peptide (DRG1‐Lys, residues 17–40) for use in the MS‐based inhibition assays. Synthetic DRG1 peptides (residues 16–40, 10 or 50 μM) were preincubated with JMJD7 (200 nM) for 15 min, after which time the DRG1‐Lys substrate (residues 17–40, 5 μM), 2OG (10 μM), FAS […] and LAA […] were added, and the reaction were carried out for 25 min at room temperature. Most of the DRG1 peptides were not active as JMJD7 inhibitors at 10 μM (residual activity of JMJD7 >50%) (Figure S41a,b), with exceptions including the DRG1‐Orn, DRG1‐hGln and DRG1‐4pyrA peptides.
Single point screening assays were as follows; initially, JMJD7 (200 nM) and substituted DRG1 peptide (10 or 50 μM) were incubated for 15 min, followed by the addition of a mixture of the DRG1‐Lys substrate (5 μM), 2OG (10 μM), FAS (10 μM) and LAA (100 μM) in a final volume of 50 μL in Tris‐buffer (pH 7.5) and incubated for additional 25 min at room temperature. […] Reactions were quenched by the addition of 10% (v/v) formic acid and mixed 1:1 with CHCCA matrix (1:1 v/v MeCN:H2O) then analyzed by MALDI‐TIMS‐TOF MS. JMJD7 activity was determined by calculating the integral of hydroxylated peptide and normalized to a control reaction in absence of potential inhibitory peptides. Every experiment was performed in duplicate (n = 2), error bars are reported as SE.

[3] = target: T1, human JMJD7; experiment: MALDI-TOF MS JMJD7 inhibition assay; format: biochemical; remark: listed apart in the source
[4] = target: T1, human JMJD7; experiment: Q-TOF-MS protein-observed analysis of intact JMJD7 (adduct formation); format: binding; conditions: 2 μM JMJD7, 20 μM peptide; for JMJD7-peptide adduct formation: Q-TOF-MS of intact protein
Procedure: To investigate inhibition by the DRG1‐Cys/Sec peptides, we performed protein‐observed analysis of JMJD7 (2 μM) in the presence of the DRG1‐Cys/Sec peptides (20 μM) under likely non‐denaturing conditions (Figure 7g). The observed masses correspond to the JMJD7‐DRG1‐Cys (40.79 kDa) and JMJD7‐DRG1‐Sec (40.84 kDa) adducts, implying that DRG1‐Cys/Sec might inhibit JMJD7 via formation of S‐S/Se‐S bonds, plausibly with Cys132, though further work is required to validate this (Figure 7g).

[5] = target: human Jumonji-C (JmjC) domain-containing protein 7 (JMJD7), residues 1-316 (human) (UniProt P0C870)
[6] = target: human Jumonji-C (JmjC) domain-containing protein 7 (JMJD7), residues 1-316 (human) (UniProt P0C870); remark: listed apart in the source
[7] = target: human Jumonji-C (JmjC) domain-containing protein 7 (JMJD7), residues 1-316 (human) (UniProt P0C870); remark: listed apart in the source
[8] = 200 nM JMJD7 preincubated 15 min with peptide (1 nM–150 μM), 5 μM DRG1-Lys (17–40) substrate, 10 μM 2OG, 25 min, room temperature, Tris pH 7.5, MALDI MS, duplicate (n = 2), ± SE, read-out: IC50 (JMJD7 inhibition, with 15 min preincubation)
[9] = same assay conditions but without preincubation, read-out: IC50 (JMJD7 inhibition, without preincubation)

T1 sequence (P0C870 whole entry, the tested form may be a part): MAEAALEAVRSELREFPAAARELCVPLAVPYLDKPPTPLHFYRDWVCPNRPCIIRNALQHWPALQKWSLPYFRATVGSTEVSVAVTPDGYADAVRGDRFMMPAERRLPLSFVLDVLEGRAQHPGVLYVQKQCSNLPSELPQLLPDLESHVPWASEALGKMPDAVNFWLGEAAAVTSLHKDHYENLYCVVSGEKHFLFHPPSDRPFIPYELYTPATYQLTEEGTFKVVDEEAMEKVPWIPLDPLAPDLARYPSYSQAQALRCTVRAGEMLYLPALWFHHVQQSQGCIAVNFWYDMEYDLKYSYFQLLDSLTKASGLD
Chain of human Jumonji-C (JmjC) domain-containing protein 7 (JMJD7), residues 1-316 (human) (P0C870 whole entry, the tested form may be a part): as above

CC(C)C[C@H](NC(=O)CNC(=O)[C@H](CC(C)C)NC(=O)[C@H](Cc1c[nH]cn1)NC(=O)[C@H](Cc1c[nH]cn1)NC(=O)[C@H](C)NC(=O)[C@@H](NC(=O)[C@H](C)NC(=O)[C@H](CCCN)NC(=O)[C@H](CC(N)=O)NC(=O)[C@H](CCCCN)NC(=O)[C@H](CCC(N)=O)NC(=O)[C@@H](NC(=O)[C@H](CCCNC(=N)N)NC(=O)[C@H](C)N)[C@@H](C)O)[C@@H](C)O)C(=O)N[C@@H](CC(C)C)C(=O)N[C@@H](CCCCN)C(=O)N[C@@H](C)C(=O)N[C@@H](CCCNC(=N)N)C(=O)N[C@@H](CC(C)C)C(=O)N[C@@H](C)C(=O)N[C@@H](CCCCN)C(=O)N[C@@H](CC(C)C)C(=O)N[C@@H](CCCNC(=N)N)C(=O)N[C@@H](CCCNC(=N)N)C(N)=O [DRG1‐Orn] (H-ARTQKN[Orn]ATAHHLGLLKARLAKLRR-NH2) was tested, and the “extent of hydroxylation by JMJD7 at higher 2OG concentration” value ([1]; 2 μM JMJD7, 10 μM peptide, 20 μM 2OG, pH 7.5, 2 h incubation) was ~ 31%, the “extent of hydroxylation (+16 Da) by JMJD7” value ([1]; standard conditions: 2 μM JMJD7, 10 μM DRG1 peptide, 10 μM 2OG, Tris pH 7.5, 2 h, room temperature) was ~ 21% and the “single point inhibition of JMJD7 at 50 μM peptide” value ([2]; 50 μM DRG1 peptide, 200 nM JMJD7, 15 min preincubation, 5 μM DRG1-Lys substrate) was “clear inhibition”. For the same molecule, the IC50 [3, 8] was 14 µM.

Work on CC(C)C[C@H](NC(=O)CNC(=O)[C@H](CC(C)C)NC(=O)[C@H](Cc1c[nH]cn1)NC(=O)[C@H](Cc1c[nH]cn1)NC(=O)[C@H](C)NC(=O)[C@@H](NC(=O)[C@H](C)NC(=O)[C@H](C[SeH])NC(=O)[C@H](CC(N)=O)NC(=O)[C@H](CCCCN)NC(=O)[C@H](CCC(N)=O)NC(=O)[C@@H](NC(=O)[C@H](CCCNC(=N)N)NC(=O)[C@H](C)N)[C@@H](C)O)[C@@H](C)O)C(=O)N[C@@H](CC(C)C)C(=O)N[C@@H](CCCCN)C(=O)N[C@@H](C)C(=O)N[C@@H](CCCNC(=N)N)C(=O)N[C@@H](CC(C)C)C(=O)N[C@@H](C)C(=O)N[C@@H](CCCCN)C(=O)N[C@@H](CC(C)C)C(=O)N[C@@H](CCCNC(=N)N)C(=O)N[C@@H](CCCNC(=N)N)C(N)=O [DRG1‐Sec] (H-ARTQKN[Sec]ATAHHLGLLKARLAKLRR-NH2) yielded an IC50 [3, 8] of 1.46 µM and an IC50 [3, 9] of 2.8 µM.

Work on CC(C)C[C@H](NC(=O)CNC(=O)[C@H](CC(C)C)NC(=O)[C@H](Cc1c[nH]cn1)NC(=O)[C@H](Cc1c[nH]cn1)NC(=O)[C@H](C)NC(=O)[C@@H](NC(=O)[C@H](C)NC(=O)[C@H](CCCC(N)=O)NC(=O)[C@H](CC(N)=O)NC(=O)[C@H](CCCCN)NC(=O)[C@H](CCC(N)=O)NC(=O)[C@@H](NC(=O)[C@H](CCCNC(=N)N)NC(=O)[C@H](C)N)[C@@H](C)O)[C@@H](C)O)C(=O)N[C@@H](CC(C)C)C(=O)N[C@@H](CCCCN)C(=O)N[C@@H](C)C(=O)N[C@@H](CCCNC(=N)N)C(=O)N[C@@H](CC(C)C)C(=O)N[C@@H](C)C(=O)N[C@@H](CCCCN)C(=O)N[C@@H](CC(C)C)C(=O)N[C@@H](CCCNC(=N)N)C(=O)N[C@@H](CCCNC(=N)N)C(N)=O [DRG1‐hGln] (H-ARTQKN[Aad](NH2)ATAHHLGLLKARLAKLRR-NH2) yielded an IC50 [3, 8] of 7.68 µM.

“ARTQKNCATAHHLGLLKARLAKLRR-NH2 [DRG1‐Cys]” was tested, and the “single point inhibition of JMJD7 under reducing conditions” value ([2]; 10 and 50 μM peptide, DTT or TCEP (1 mM) as reductant in the reaction buffer) was “lack inhibitory activity”, the “JMJD7-peptide cross-linking in the presence of DTT” value ([4]; DTT in the buffer, Q-TOF-MS) was “no cross‐linking is observed” and the JMJD7-peptide adduct formation [4] was “observed in lower extent at 1 min”. It also gave an IC50 [3, 8] of 1.25 µM and an IC50 [3, 9] of 16 µM.

For “ARTQKNSerATAHHLGLLKARLAKLRR [DRG1‐Ser, 25-mer DRG1 (16–40) peptide with Ser at position 22]”, the “degree of oxidation (+16 Da) of cysteine/methionine analog peptides by JMJD7” value ([1]; 2 μM JMJD7, 10 μM peptide, 10 μM 2OG) was “did also not undergo oxidation” and the JMJD7-peptide adduct formation [4] was “Adduct formation was not observed”.

“DRG1-4pyrA peptide (DRG1 residues 16-40, 4pyrA in place of Lys22)” gave an IC50 of inhibition of JMJD7-catalysed (200 nM) hydroxylation of the DRG1-Lys substrate (residues 17-40, 5 μM), MALDI-TOF MS, 15 min preincubation [5] of 15.2 µM.

With “DRG1-Cys peptide (DRG1 residues 16-40, Cys in place of Lys22)” the IC50 of inhibition of JMJD7-catalysed hydroxylation of the DRG1-Lys substrate, MALDI-TOF MS, 15 min preincubation [6] was 1.25 µM and the IC50 of inhibition of JMJD7-catalysed hydroxylation of the DRG1-Lys substrate, MALDI-TOF MS, without preincubation [6] was 16 µM.

“DRG1-LysE peptide (DRG1 residues 16-40, (E)-dehydrolysine in place of Lys22)” gave a Km of JMJD7-catalysed hydroxylation, steady-state kinetics by SPE-MS (0.1-5.0 μM peptide, 100 nM JMJD7) [7] of 3.1 µM.

“DRG1-Orn peptide (DRG1 residues 16-40, Orn in place of Lys22)” gave an IC50 of inhibition of JMJD7-catalysed (200 nM) hydroxylation of the DRG1-Lys substrate (residues 17-40, 5 μM), MALDI-TOF MS, 15 min preincubation [5] of 14 µM.

With “DRG1-Sec peptide (DRG1 residues 16-40, selenocysteine in place of Lys22)” the IC50 of inhibition of JMJD7-catalysed hydroxylation of the DRG1-Lys substrate, MALDI-TOF MS, 15 min preincubation [6] was 1.46 µM and the IC50 of inhibition of JMJD7-catalysed hydroxylation of the DRG1-Lys substrate, MALDI-TOF MS, without preincubation [6] was 2.8 µM.

“DRG1-hGln peptide (DRG1 residues 16-40, hGln in place of Lys22)” showed an IC50 of inhibition of JMJD7-catalysed (200 nM) hydroxylation of the DRG1-Lys substrate (residues 17-40, 5 μM), MALDI-TOF MS, 15 min preincubation [5] of 7.68 µM.

“DRG1‐Cys (residues 19–25): shorter peptide fragment DRG1-Cys (residues 19–25) (QKNCATA-NH2)” was tested, and the “inhibition of JMJD7 by the shorter peptide fragment” value ([2]; standard conditions) was “No inhibition”.

For ARTQKNKATAHHLGLLKARLAKLRR-NH2 [DRG1-Lys substrate peptide (DRG1 residues 16-40)], the Km of JMJD7-catalysed hydroxylation, steady-state kinetics by SPE-MS (0.1-5.0 μM peptide, 100 nM JMJD7) [7] was 1.4 µM.

Reference: PMC11400632, “Substrate selectivity and inhibition of the human lysyl hydroxylase JMJD7” (Protein Science : A Publication of the Protein Society, 2024)
